Tested on: 993429-296-R-J1-PDC complex spheroid growth, percent test/control
Assay: Anticancer human tumor 993429-296-R-J1-PDC patient-derived uterine sarcoma cell line growth inhibition [Asc]
Details: for IC50: curve of first compound; for viability, T/C: stronger effect = lower value
Method in brief: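 Tumor cells were grown as multicellular spheroids with stromal HUVEC and mesenchymal stem cells and treated singly or in combination. Concentrations fell in half-log steps from the clinical Cmax, or from 10 microM where none was known.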

[1] = second compound 0.03 µM, first compound 0.0316 µM
[2] = second compound 0.03 µM, first compound 0.1 µM
[3] = second compound 0.03 µM, first compound 0.316 µM
[4] = second compound 0.03 µM, first compound 1 µM
[5] = second compound 0.03 µM, first compound 3.16 µM
[6] = second compound 0.03 µM, first compound 10 µM
[7] = second compound 0.0949 µM, first compound 0.0316 µM
[8] = second compound 0.0949 µM, first compound 0.1 µM
[9] = second compound 0.0949 µM, first compound 0.316 µM
[10] = second compound 0.0949 µM, first compound 1 µM
[11] = second compound 0.0949 µM, first compound 3.16 µM
[12] = second compound 0.0949 µM, first compound 10 µM
[13] = second compound 0.3 µM, first compound 0.0316 µM
[14] = second compound 0.3 µM, first compound 0.1 µM
[15] = second compound 0.3 µM, first compound 0.316 µM
[16] = second compound 0.3 µM, first compound 1 µM
[17] = second compound 0.3 µM, first compound 3.16 µM
[18] = second compound 0.3 µM, first compound 10 µM
[19] = second compound 0.949 µM, first compound 0.0316 µM
[20] = second compound 0.949 µM, first compound 0.1 µM
[21] = second compound 0.949 µM, first compound 0.316 µM
[22] = second compound 0.949 µM, first compound 1 µM
[23] = second compound 0.949 µM, first compound 3.16 µM
[24] = second compound 0.949 µM, first compound 10 µM
[25] = second compound 3 µM, first compound 0.0316 µM
[26] = second compound 3 µM, first compound 0.1 µM
[27] = second compound 3 µM, first compound 0.316 µM
[28] = second compound 3 µM, first compound 1 µM
[29] = second compound 3 µM, first compound 3.16 µM
[30] = second compound 3 µM, first compound 10 µM
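Also: spheroids exposed to compounds for seven days.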

SMILES: CCN1C(C(=O)NC23CCC(C(=O)O)(CC2)CC3)C(c2cccc(Cl)c2F)C2(C(=O)Nc3cc(Cl)ccc32)C12CCCCC2 (stereo not given) + CNC(C)C(=O)NC1CN(S(=O)(=O)c2cccc(S(=O)(=O)N3CCC4CCC(C(=O)NC(c5ccccc5)c5ccccc5)N4C(=O)C(NC(=O)C(C)NC)C3)c2)CCC2CCC(C(=O)NC(c3ccccc3)c3ccccc3)N2C1=O
- IC50 (second compound 0.01 µM): > 3 µM
- IC50 (second compound 0.0316 µM): > 3 µM
- IC50 (second compound 0.1 µM): > 3 µM
- IC50 (second compound 0.316 µM): < 0.00949 µM
- IC50 (second compound 1 µM): > 3 µM
- viability, T/C (second compound 0.01 µM, first compound 0.00949 µM): 66.7%
- viability, T/C (second compound 0.01 µM, first compound 0.03 µM): 61.1%
- viability, T/C (second compound 0.01 µM, first compound 0.0949 µM): 64%
- viability, T/C (second compound 0.01 µM, first compound 0.3 µM): 66.5%
- viability, T/C (second compound 0.01 µM, first compound 0.949 µM): 74.5%
- viability, T/C (second compound 0.01 µM, first compound 3 µM): 60%
- viability, T/C (second compound 0.0316 µM, first compound 0.00949 µM): 66.2%
- viability, T/C (second compound 0.0316 µM, first compound 0.03 µM): 61.2%
- viability, T/C (second compound 0.0316 µM, first compound 0.0949 µM): 55%
- viability, T/C (second compound 0.0316 µM, first compound 0.3 µM): 54.5%
- viability, T/C (second compound 0.0316 µM, first compound 0.949 µM): 68.5%
- viability, T/C (second compound 0.0316 µM, first compound 3 µM): 61.1%
- viability, T/C (second compound 0.1 µM, first compound 0.00949 µM): 58.9%
- viability, T/C (second compound 0.1 µM, first compound 0.03 µM): 50%
- viability, T/C (second compound 0.1 µM, first compound 0.0949 µM): 56%
- viability, T/C (second compound 0.1 µM, first compound 0.3 µM): 48.4%
- viability, T/C (second compound 0.1 µM, first compound 0.949 µM): 60.1%
- viability, T/C (second compound 0.1 µM, first compound 3 µM): 64%
- viability, T/C (second compound 0.316 µM, first compound 0.00949 µM): 48.9%
- viability, T/C (second compound 0.316 µM, first compound 0.03 µM): 55.7%
- viability, T/C (second compound 0.316 µM, first compound 0.0949 µM): 53%
- viability, T/C (second compound 0.316 µM, first compound 0.3 µM): 60.8%
- viability, T/C (second compound 0.316 µM, first compound 0.949 µM): 68.7%
- viability, T/C (second compound 0.316 µM, first compound 3 µM): 58.1%
- viability, T/C (second compound 1 µM, first compound 0.00949 µM): 55.3%
- viability, T/C (second compound 1 µM, first compound 0.03 µM): 59.9%
- viability, T/C (second compound 1 µM, first compound 0.0949 µM): 45.4%
- viability, T/C (second compound 1 µM, first compound 0.3 µM): 40.9%
- viability, T/C (second compound 1 µM, first compound 0.949 µM): 51.8%
- viability, T/C (second compound 1 µM, first compound 3 µM): 63.1%

SMILES: C=CC(=O)N1CCN(c2nc(=O)n(-c3c(C)ccnc3C(C)C)c3nc(-c4c(O)cccc4F)c(F)cc23)C(C)C1 (stereo not given) + CCN1C(C(=O)NC23CCC(C(=O)O)(CC2)CC3)C(c2cccc(Cl)c2F)C2(C(=O)Nc3cc(Cl)ccc32)C12CCCCC2
- IC50 (second compound 0.03 µM): > 10 µM
- IC50 (second compound 0.0949 µM): > 10 µM
- IC50 (second compound 0.3 µM): > 10 µM
- IC50 (second compound 0.949 µM): > 10 µM
- IC50 (second compound 3 µM): > 10 µM
- viability, T/C [1]: 96.1%
- viability, T/C [2]: 101%
- viability, T/C [3]: 108%
- viability, T/C [4]: 86.2%
- viability, T/C [5]: 114%
- viability, T/C [6]: 76.1%
- viability, T/C [7]: 102%
- viability, T/C [8]: 106%
- viability, T/C [9]: 103%
- viability, T/C [10]: 106%
- viability, T/C [11]: 96.5%
- viability, T/C [12]: 70.5%
- viability, T/C [13]: 88.8%
- viability, T/C [14]: 102%
- viability, T/C [15]: 102%
- viability, T/C [16]: 106%
- viability, T/C [17]: 107%
- viability, T/C [18]: 85.7%
- viability, T/C [19]: 102%
- viability, T/C [20]: 91.2%
- viability, T/C [21]: 128%
- viability, T/C [22]: 100%
- viability, T/C [23]: 94.9%
- viability, T/C [24]: 78.3%
- viability, T/C [25]: 100%
- viability, T/C [26]: 87.6%
- viability, T/C [27]: 97.9%
- viability, T/C [28]: 96.3%
- viability, T/C [29]: 90.4%
- viability, T/C [30]: 77.9%

SMILES: C=CC(=O)N1CCN(c2nc(=O)n(-c3c(C)ccnc3C(C)C)c3nc(-c4c(O)cccc4F)c(F)cc23)C(C)C1 (stereo not given) + Cc1c(S(C)(=O)=O)c(-c2cc(F)cc(N3CCN(c4ccc(NS(=O)(=O)c5ccc(NC(CCN6CCC(C(=O)OCCCP(=O)(O)O)CC6)CSc6ccccc6)c(S(=O)(=O)C(F)(F)F)c5)cc4)CC3)c2)c(-c2ccc(Cl)cc2)n1C(C)C
- IC50 (second compound 0.1 µM): > 10 µM
- IC50 (second compound 0.316 µM): 4.92 µM
- IC50 (second compound 1 µM): 4.34 µM
- IC50 (second compound 3.16 µM): 0.524 µM
- IC50 (second compound 10 µM): 5.69 µM
- viability, T/C (second compound 0.1 µM, first compound 0.0316 µM): 83.5%
- viability, T/C (second compound 0.1 µM, first compound 0.1 µM): 81.1%
- viability, T/C (second compound 0.1 µM, first compound 0.316 µM): 91.9%
- viability, T/C (second compound 0.1 µM, first compound 1 µM): 75.1%
- viability, T/C (second compound 0.1 µM, first compound 3.16 µM): 76.5%
- viability, T/C (second compound 0.1 µM, first compound 10 µM): 54.6%
- viability, T/C (second compound 0.316 µM, first compound 0.0316 µM): 79%
- viability, T/C (second compound 0.316 µM, first compound 0.1 µM): 80.6%
- viability, T/C (second compound 0.316 µM, first compound 0.316 µM): 69.2%
- viability, T/C (second compound 0.316 µM, first compound 1 µM): 75%
- viability, T/C (second compound 0.316 µM, first compound 3.16 µM): 62.3%
- viability, T/C (second compound 0.316 µM, first compound 10 µM): 30.5%
- viability, T/C (second compound 1 µM, first compound 0.0316 µM): 62.9%
- viability, T/C (second compound 1 µM, first compound 0.1 µM): 53.5%
- viability, T/C (second compound 1 µM, first compound 0.316 µM): 76.8%
- viability, T/C (second compound 1 µM, first compound 1 µM): 62.1%
- viability, T/C (second compound 1 µM, first compound 3.16 µM): 47.3%
- viability, T/C (second compound 1 µM, first compound 10 µM): 41.8%
- viability, T/C (second compound 3.16 µM, first compound 0.0316 µM): 51.1%
- viability, T/C (second compound 3.16 µM, first compound 0.1 µM): 59.9%
- viability, T/C (second compound 3.16 µM, first compound 0.316 µM): 54.4%
- viability, T/C (second compound 3.16 µM, first compound 1 µM): 43.8%
- viability, T/C (second compound 3.16 µM, first compound 3.16 µM): 34.9%
- viability, T/C (second compound 3.16 µM, first compound 10 µM): 45.9%
- viability, T/C (second compound 10 µM, first compound 0.0316 µM): 106%
- viability, T/C (second compound 10 µM, first compound 0.1 µM): 81%
- viability, T/C (second compound 10 µM, first compound 0.316 µM): 86.6%
- viability, T/C (second compound 10 µM, first compound 1 µM): 86.1%
- viability, T/C (second compound 10 µM, first compound 3.16 µM): 64.7%
- viability, T/C (second compound 10 µM, first compound 10 µM): 34.9%

SMILES: O=C(c1cc(Cc2n[nH]c(=O)c3ccccc23)ccc1F)N1CCN(C(=O)C2CC2)CC1 + CCN1C(C(=O)NC23CCC(C(=O)O)(CC2)CC3)C(c2cccc(Cl)c2F)C2(C(=O)Nc3cc(Cl)ccc32)C12CCCCC2
- IC50 (second compound 0.03 µM): 6.36 µM
- IC50 (second compound 0.0949 µM): 4.84 µM
- IC50 (second compound 0.3 µM): 6.87 µM
- IC50 (second compound 0.949 µM): 4.9 µM
- IC50 (second compound 3 µM): 3.04 µM
- viability, T/C [1]: 87.8%
- viability, T/C [2]: 104%
- viability, T/C [3]: 98%
- viability, T/C [4]: 100%
- viability, T/C [5]: 66.3%
- viability, T/C [6]: 39.5%
- viability, T/C [7]: 109%
- viability, T/C [8]: 106%
- viability, T/C [9]: 87.9%
- viability, T/C [10]: 113%
- viability, T/C [11]: 61.9%
- viability, T/C [12]: 29.6%
- viability, T/C [13]: 92%
- viability, T/C [14]: 100%
- viability, T/C [15]: 99.7%
- viability, T/C [16]: 78.6%
- viability, T/C [17]: 76.1%
- viability, T/C [18]: 38.5%
- viability, T/C [19]: 100%
- viability, T/C [20]: 113%
- viability, T/C [21]: 88.8%
- viability, T/C [22]: 81%
- viability, T/C [23]: 62.2%
- viability, T/C [24]: 32.1%
- viability, T/C [25]: 96.6%
- viability, T/C [26]: 90.3%
- viability, T/C [27]: 78.4%
- viability, T/C [28]: 83.1%
- viability, T/C [29]: 48.3%
- viability, T/C [30]: 33.1%
